{"source": "ChEMBL document CHEMBL4619763", "about": "(J Nat Prod, 2020)", "key": {"Rattus norvegicus [1]": {"system": "Rattus norvegicus", "assay": "Diuretic activity in normotensive Wistar rat assessed as increase in urine volume excretion at 1 mg/kg, ip a after 6 hr", "type": "functional, organism-based"}, "Rattus norvegicus [2]": {"system": "Rattus norvegicus", "assay": "Diuretic activity in normotensive Wistar rat assessed as urine pH at 0.01 mg/kg, po administered via gavage after 8 hrs (reference value: 6.14 to 6.21)", "type": "functional"}, "Rattus norvegicus [3]": {"system": "Rattus norvegicus", "assay": "Diuretic activity in normotensive Wistar rat assessed as urine pH at 1 mg/kg, po administered via gavage after 8 hrs (reference value: 6.14 to 6.21)", "type": "functional"}, "Rattus norvegicus [4]": {"system": "Rattus norvegicus", "assay": "Diuretic activity in normotensive Wistar rat assessed as urine pH at 0.01 mg/kg, ip after 8 hrs (reference value: 6.05 +/- 0.22)", "type": "functional"}, "Rattus norvegicus [5]": {"system": "Rattus norvegicus", "assay": "Diuretic activity in normotensive Wistar rat assessed as urine conductivity at 1 mg/kg, po administered via gavage after 8 hrs (reference value: 19.54 +/- 0.98 mS/cm)", "type": "functional"}, "Rattus norvegicus [6]": {"system": "Rattus norvegicus", "assay": "Diuretic activity in normotensive Wistar rat assessed as urinary sodium excretion at 0.01 mg/kg, po administered via gavage after 8 hrs (reference value: 61.82 to 80.81 mmol/L)", "type": "functional"}, "Rattus norvegicus [7]": {"system": "Rattus norvegicus", "assay": "Diuretic activity in normotensive Wistar rat assessed as urinary potassium excretion at 0.1 mg/kg, po administered via gavage after 8 hrs (reference value: 22.39 to 24.21 mmol/L)", "type": "ADME, organism-based", "details": "in vivo"}, "Rattus norvegicus [8]": {"system": "Rattus norvegicus", "assay": "Diuretic activity in normotensive Wistar rat assessed as urinary potassium excretion at 0.1 mg/kg, ip […] after 8 hrs (reference value: 22.33 +/- 2.81 mmol/L)", "type": "ADME, organism-based", "details": "in vivo"}, "Rattus norvegicus [9]": {"system": "Rattus norvegicus", "assay": "Diuretic activity in normotensive Wistar rat assessed as urinary potassium excretion at 1 mg/kg, ip […] after 8 hrs (reference value: 22.33 +/- 2.81 mmol/L)", "type": "ADME, organism-based", "details": "in vivo"}, "Rattus norvegicus [10]": {"system": "Rattus norvegicus", "assay": "Diuretic activity in normotensive Wistar rat assessed as urinary chloride excretion at 0.01 mg/kg, po administered via gavage after 8 hrs (reference value: 135.10 to 143.70 mmol/L)", "type": "functional"}, "Rattus norvegicus [11]": {"system": "Rattus norvegicus", "assay": "Diuretic activity in normotensive Wistar rat assessed as urinary calcium excretion at 0.1 mg/kg, po administered via gavage after 8 hrs (reference value: 5.93 to 6.87 mg/dl)", "type": "functional"}, "Rattus norvegicus [12]": {"system": "Rattus norvegicus", "assay": "Diuretic activity in normotensive Wistar rat assessed as urinary calcium excretion at 0.1 mg/kg, […] administered via gavage after 8 hrs (reference value: 5.28 +/- 0.09 mg/dl)", "type": "functional"}, "Rattus norvegicus [13]": {"system": "Rattus norvegicus", "assay": "Diuretic activity in normotensive Wistar rat assessed as urinary calcium excretion at 1 mg/kg, ip […] after 8 hrs (reference value: 5.28 +/- 0.09 mg/dl)", "type": "functional"}, "Rattus norvegicus [14]": {"system": "Rattus norvegicus", "assay": "Diuretic activity in normotensive Wistar rat assessed as urine pH at 0.1 mg/kg, po administered via gavage after 8 hrs in presence of hydrochlorothiazide (reference value: 6.14 to 6.21)", "type": "functional"}, "Rattus norvegicus [15]": {"system": "Rattus norvegicus", "assay": "Diuretic activity in normotensive Wistar rat assessed as urine conductivity at 0.1 mg/kg, po administered via gavage after 8 hrs in presence of L-NAME (reference value: 19.54 +/- 0.98 mS/cm)", "type": "functional"}, "Rattus norvegicus [16]": {"system": "Rattus norvegicus", "assay": "Diuretic activity in normotensive Wistar rat assessed as urinary sodium excretion at 0.1 mg/kg, po administered via gavage after 8 hrs in presence of amiloride (reference value: 61.82 to 80.81 mmol/L)", "type": "functional"}, "Rattus norvegicus [17]": {"system": "Rattus norvegicus", "assay": "Diuretic activity in normotensive Wistar rat assessed as urinary sodium excretion at 0.1 mg/kg, po administered via gavage after 8 hrs in presence of L-NAME (reference value: 61.82 to 80.81 mmol/L)", "type": "functional"}, "Rattus norvegicus [18]": {"system": "Rattus norvegicus", "assay": "Diuretic activity in normotensive Wistar rat assessed as urinary potassium excretion at 0.1 mg/kg, po administered via gavage after 8 hrs in presence of furosemide (reference value: 22.39 to 24.21 mmol/L)", "type": "ADME, organism-based", "details": "in vivo"}, "Rattus norvegicus [19]": {"system": "Rattus norvegicus", "assay": "Diuretic activity in normotensive Wistar rat assessed as urinary potassium excretion at 0.1 mg/kg, po administered via gavage after 8 hrs in presence of amiloride (reference value: 22.39 to 24.21 mmol/L)", "type": "ADME, organism-based", "details": "in vivo"}, "Rattus norvegicus [20]": {"system": "Rattus norvegicus", "assay": "Diuretic activity in normotensive Wistar rat assessed as urinary potassium excretion at 0.1 mg/kg, po administered via gavage after 8 hrs in presence of L-NAME (reference value: 22.39 to 24.21 mmol/L)", "type": "ADME, organism-based", "details": "in vivo"}, "Rattus norvegicus [21]": {"system": "Rattus norvegicus", "assay": "Diuretic activity in normotensive Wistar rat assessed as urinary chloride excretion at 0.1 mg/kg, po administered via gavage after 8 hrs in presence of hydrochlorothiazide (reference value: 135.10 to 143.70 mmol/L)", "type": "functional"}, "Rattus norvegicus [22]": {"system": "Rattus norvegicus", "assay": "Diuretic activity in normotensive Wistar rat assessed as urinary chloride excretion at 0.1 mg/kg, po administered via gavage after 8 hrs in presence of indomethacin (reference value: 135.10 to 143.70 mmol/L)", "type": "functional"}, "Rattus norvegicus [23]": {"system": "Rattus norvegicus", "assay": "Diuretic activity in normotensive Wistar rat assessed as urinary calcium excretion at 0.1 mg/kg, po administered via gavage after 8 hrs in presence of hydrochlorothiazide (reference value: 5.93 to 6.87 mg/dl)", "type": "functional"}, "Rattus norvegicus [24]": {"system": "Rattus norvegicus", "assay": "Diuretic activity in normotensive Wistar rat assessed as increase in urinary sodium excretion at 0.1 mg/kg, po administered via gavage for 7 days", "type": "functional, organism-based"}, "Rattus norvegicus [25]": {"system": "Rattus norvegicus", "assay": "Diuretic activity in spontaneous hypertensive Wistar rat assessed as decrease in urinary calcium excretion at 0.1 mg/kg, po administered via gavage for 7 days", "type": "functional, organism-based"}, "[26]": {"assay": "Toxicity in normotensive Wistar rat assessed as changes in plasma chloride level at 0.1 mg/kg, po administered for 7 days", "type": "organism-based", "details": "in vivo, 168 h"}, "[27]": {"assay": "Toxicity in spontaneous hypertensive Wistar rat assessed as changes in plasma chloride level at 0.1 mg/kg, po administered for 7 days", "type": "organism-based", "details": "in vivo, 168 h"}, "[28]": {"assay": "Toxicity in spontaneous hypertensive Wistar rat assessed as changes in plasma calcium level at 0.1 mg/kg, po administered for 7 days", "type": "organism-based", "details": "in vivo, 168 h"}, "[29]": {"assay": "Toxicity in normotensive Wistar rat assessed as changes in plasma AST level at 0.1 mg/kg, po administered for 7 days", "type": "organism-based", "details": "in vivo, 168 h"}, "[30]": {"assay": "Toxicity in spontaneous hypertensive Wistar rat assessed as changes in plasma AST level at 0.1 mg/kg, po administered for 7 days", "type": "organism-based", "details": "in vivo, 168 h"}, "[31]": {"assay": "Toxicity in normotensive Wistar rat assessed as changes in plasma ALT level at 0.1 mg/kg, po administered for 7 days", "type": "organism-based", "details": "in vivo, 168 h"}, "[32]": {"assay": "Toxicity in normotensive Wistar rat assessed as changes in plasma nitrite acid level at 0.1 mg/kg, po administered for 7 days", "type": "organism-based", "details": "in vivo, 168 h"}, "[33]": {"assay": "Toxicity in normotensive Wistar rat assessed as changes in urinary creatinine at 0.1 mg/kg, po administered for 7 days", "type": "organism-based", "details": "in vivo, 168 h"}, "Rattus norvegicus [34]": {"system": "Rattus norvegicus", "assay": "Renal protective activity in spontaneous hypertensive Wistar rat assessed as reduction in hypertension-induced Bowman's capsule thickening at 0.1 mg/kg, po administered via gavage for 7 days by hematoxylin and eosin staining based microscopic analysis", "type": "functional, organism-based"}, "[35]": {"assay": "Anti-urolithic activity in synthetic urine assessed as reduction in CaOx crystal formation at 0.01 mg/mL in presence of sodium oxalate after 60 mins by Neubauer counting chamber method relative to control", "type": "functional", "parameters": "scale not given: the % may be the effect or the level left"}, "[36]": {"assay": "Anti-urolithic activity in synthetic urine assessed as decrease in absorbance at 0.1 mg/mL after 30 mins relative to control", "type": "functional", "parameters": "scale not given: the % may be the effect or the level left"}}, "note": "Activity calls are given as the source filed them. The rule behind the calls is not given here.", "data": [{"smiles": "C[C@@H]1O[C@@H](Oc2c(-c3ccc(O)cc3)oc3cc(O)cc(O)c3c2=O)[C@H](O)[C@H](O)[C@H]1O", "note": "[AFZELIN]", "values": [{"measurement": "Activity", "setting": "Rattus norvegicus [1]", "result": "Active"}, {"measurement": "pH", "setting": "Rattus norvegicus [2]", "result": 5.73}, {"measurement": "pH", "setting": "Rattus norvegicus [3]", "result": 6.29}, {"measurement": "pH", "setting": "Rattus norvegicus [4]", "result": 5.82}, {"measurement": "Activity", "setting": "Rattus norvegicus [5]", "result": 17.48, "unit": "mS/cm"}, {"measurement": "Activity", "setting": "Rattus norvegicus [6]", "result": 61.35, "unit": "mmol/L"}, {"measurement": "Activity", "setting": "Rattus norvegicus [7]", "result": "24.2 to 24.7", "unit": "mmol/L"}, {"measurement": "Activity", "setting": "Rattus norvegicus [8]", "result": 12.79, "unit": "mmol/L"}, {"measurement": "Activity", "setting": "Rattus norvegicus [9]", "result": 14.41, "unit": "mmol/L"}, {"measurement": "Activity", "setting": "Rattus norvegicus [10]", "result": 113.3, "unit": "mmol/L"}, {"measurement": "Activity", "setting": "Rattus norvegicus [11]", "result": "5.22 to 6.33", "unit": "mg/dL"}, {"measurement": "Activity", "setting": "Rattus norvegicus [12]", "result": 5.51, "unit": "mg/dL"}, {"measurement": "Activity", "setting": "Rattus norvegicus [13]", "result": 5.46, "unit": "mg/dL"}, {"measurement": "pH", "setting": "Rattus norvegicus [14]", "result": 6.42}, {"measurement": "Activity", "setting": "Rattus norvegicus [15]", "result": 15.97, "unit": "mS/cm"}, {"measurement": "Activity", "setting": "Rattus norvegicus [16]", "result": 79.24, "unit": "mmol/L"}, {"measurement": "Activity", "setting": "Rattus norvegicus [17]", "result": 75.14, "unit": "mmol/L"}, {"measurement": "Activity", "setting": "Rattus norvegicus [18]", "result": 20.41, "unit": "mmol/L"}, {"measurement": "Activity", "setting": "Rattus norvegicus [19]", "result": 1.95, "unit": "mmol/L"}, {"measurement": "Activity", "setting": "Rattus norvegicus [20]", "result": 14.84, "unit": "mmol/L"}, {"measurement": "Activity", "setting": "Rattus norvegicus [21]", "result": 333.4, "unit": "mmol/L"}, {"measurement": "Activity", "setting": "Rattus norvegicus [22]", "result": 284.5, "unit": "mmol/L"}, {"measurement": "Activity", "setting": "Rattus norvegicus [23]", "result": 4.54, "unit": "mg/dL"}, {"measurement": "Activity", "setting": "Rattus norvegicus [24]", "result": "Active"}, {"measurement": "Activity", "setting": "Rattus norvegicus [25]", "result": "Active"}, {"measurement": "Activity", "setting": "[26]", "result": "Non-Toxic"}, {"measurement": "Activity", "setting": "[27]", "result": "Non-Toxic"}, {"measurement": "Activity", "setting": "[28]", "result": "Non-Toxic"}, {"measurement": "Activity", "setting": "[29]", "result": "Non-Toxic"}, {"measurement": "Activity", "setting": "[30]", "result": "Non-Toxic"}, {"measurement": "Activity", "setting": "[31]", "result": "Non-Toxic"}, {"measurement": "Activity", "setting": "[32]", "result": "Non-Toxic"}, {"measurement": "Activity", "setting": "[33]", "result": "Non-Toxic"}, {"measurement": "Activity", "setting": "Rattus norvegicus [34]", "result": "Active"}, {"measurement": "Activity", "setting": "[35]", "result": 57.47, "unit": "%"}, {"measurement": "Activity", "setting": "[36]", "result": 21.54, "unit": "%"}]}]}
